Values quoted from earlier work, collected in PubChem BioAssay AID1259409 (Chemical Carcinogenesis Research Information System (CCRIS), 2018).

System: rodent chemically induced tumor inhibition, incidence and multiplicity
Assay: CCRIS tumor inhibitor studies
Details: Dose [Inhibitor]: 0, Route [Inhibitor]: GAVAGE, Species: MOUSE, Promoter: NONE USED

SMILES: O=C(/C=C/C=C/c1ccc2c(c1)OCO2)N1CCCCC1
- tumour outcome (control, treated, inhibition, significance) (Carcinogen: METHYLCHOLANTHRENE, 56-49-5, 5.5 MG IN 0.05 ML SUNFLOWER OIL 1/WK FOR 1 YR BEGINNING POST CARCINOGEN TREATMENT (STUDY DURATION: 24 MO), Strain/Sex: SWISS/FEMALE, Target Tissue: Type of Lesion: LUNG: PAPILLARY ADENOMA AND ADENOCARCINOMA, Dose [Carcinogen]: 0.01 MG ON D 1, 7, 14 AND 21 AFTER BIRTH): 7/11 (64%), 9/12 (75%), -17%, not calculated
- tumour outcome (control, treated, inhibition, significance) (Carcinogen: METHYLCHOLANTHRENE, 56-49-5, 5.5 MG IN 0.05 ML SUNFLOWER OIL 1/WK FOR 1 YR BEGINNING POST CARCINOGEN TREATMENT (STUDY DURATION: 24 MO), Strain/Sex: SWISS/MALE, Target Tissue: Type of Lesion: LIVER: HEPATOCELLULAR ADENOMA AND CARCINOMA): 3/13 (23%), 4/13 (31%), -35%, not calculated
- tumour outcome (control, treated, inhibition, significance) (Carcinogen: METHYLCHOLANTHRENE, 56-49-5, 5.5 MG IN 0.05 ML SUNFLOWER OIL 1/WK FOR 1 YR BEGINNING POST CARCINOGEN TREATMENT (STUDY DURATION: 24 MO), Strain/Sex: SWISS/MALE, Target Tissue: Type of Lesion: LUNG: PAPILLARY ADENOMA AND ADENOCARCINOMA, Dose [Carcinogen]: 0.01 MG ON D 1, 7, 14 AND 21 AFTER BIRTH): 10/13 (77%), 10/13 (77%), 0%, not significant
- tumour outcome (control, treated, inhibition, significance) (Carcinogen: METHYLCHOLANTHRENE, 56-49-5, 5.5 MG IN 0.05 ML SUNFLOWER OIL 1/WK FOR 1 YR BEGINNING POST CARCINOGEN TREATMENT (STUDY DURATION: 24 MO), Strain/Sex: SWISS/MALE, Target Tissue: Type of Lesion: SKIN: SARCOMA AND CARCINOMA, Dose [Carcinogen]: 0.01 MG ON D 1, 7, 14 AND 21 AFTER BIRTH): 5/13 (38%), 2/13 (15%), 61%, not calculated
- tumour outcome (control, treated, inhibition, significance) (Carcinogen: METHYLCHOLANTHRENE, 56-49-5, 5.5 MG IN 0.05 ML SUNFLOWER OIL 1/WK FOR 1 YR BEGINNING POST CARCINOGEN TREATMENT (STUDY DURATION: 24 MO), Strain/Sex: SWISS/MALE, Target Tissue: Type of Lesion: SPLEEN: LYMPHOMA, Dose [Carcinogen]: 0.01 MG ON D 1, 7, 14 AND 21 AFTER BIRTH): 2/13 (15%), 3/13 (23%), -53%, not calculated
- tumour outcome (control, treated, inhibition, significance) (Carcinogen: SAFROLE, 94-59-7, 5.5 MG IN 0.05 ML SUNFLOWER OIL 1/WK FOR 1 YR BEGINNING POST CARCINOGEN TREATMENT (STUDY DURATION: 24 MO), Strain/Sex: SWISS/FEMALE, Target Tissue: Type of Lesion: LUNG: PAPILLARY ADENOCARCINOMA, Dose [Carcinogen]: 0.2 MG ON D 1 AND 7 AFTER BIRTH THEN 0.4 MG ON D 14 AND 21): 3/18 (17%), 2/19 (11%), 35%, not calculated
- tumour outcome (control, treated, inhibition, significance) (Carcinogen: SAFROLE, 94-59-7, 5.5 MG IN 0.05 ML SUNFLOWER OIL 1/WK FOR 1 YR BEGINNING POST CARCINOGEN TREATMENT (STUDY DURATION: 24 MO), Strain/Sex: SWISS/FEMALE, Target Tissue: Type of Lesion: SKIN: SARCOMA, Dose [Carcinogen]: 0.2 MG ON D 1 AND 7 AFTER BIRTH THEN 0.4 MG ON D 14 AND 21): 2/18 (11%), 0/19 (0%), 100%, not calculated
- tumour outcome (control, treated, inhibition, significance) (Carcinogen: SAFROLE, 94-59-7, 5.5 MG IN 0.05 ML SUNFLOWER OIL 1/WK FOR 1 YR BEGINNING POST CARCINOGEN TREATMENT (STUDY DURATION: 24 MO), Strain/Sex: SWISS/MALE, Target Tissue: Type of Lesion: LIVER: HEPATOCELLULAR CARCINOMA, Dose [Carcinogen]: 0.2 MG ON D 1 AND 7 AFTER BIRTH THEN 0.4 MG ON D 14 AND 21): 7/24 (29%), 1/23 (4%), 86%, p<0.05
- tumour outcome (control, treated, inhibition, significance) (Carcinogen: SAFROLE, 94-59-7, 5.5 MG IN 0.05 ML SUNFLOWER OIL 1/WK FOR 1 YR BEGINNING POST CARCINOGEN TREATMENT (STUDY DURATION: 24 MO), Strain/Sex: SWISS/MALE, Target Tissue: Type of Lesion: LUNG: PAPILLARY ADENOCARCINOMA, Dose [Carcinogen]: 0.2 MG ON D 1 AND 7 AFTER BIRTH THEN 0.4 MG ON D 14 AND 21): 5/24 (21%), 2/23 (9%), 57%, not calculated
- tumour outcome (control, treated, inhibition, significance) (Carcinogen: SAFROLE, 94-59-7, 5.5 MG IN 0.05 ML SUNFLOWER OIL 1/WK FOR 1 YR BEGINNING POST CARCINOGEN TREATMENT (STUDY DURATION: 24 MO), Strain/Sex: SWISS/MALE, Target Tissue: Type of Lesion: SKIN: SARCOMA, Dose [Carcinogen]: 0.2 MG ON D 1 AND 7 AFTER BIRTH THEN 0.4 MG ON D 14 AND 21): 2/24 (8%), 0/23 (0%), 100%, not calculated
- tumour outcome (control, treated, inhibition, significance) (Carcinogen: SAFROLE, 94-59-7, 5.5 MG IN 0.05 ML SUNFLOWER OIL 1/WK FOR 1 YR BEGINNING POST CARCINOGEN TREATMENT (STUDY DURATION: 24 MO), Strain/Sex: SWISS/MALE, Target Tissue: Type of Lesion: SPLEEN: LYMPHOMA, Dose [Carcinogen]: 0.2 MG ON D 1 AND 7 AFTER BIRTH THEN 0.4 MG ON D 14 AND 21): 6/24 (25%), 3/23 (13%), 48%, not calculated
- tumour outcome (control, treated, inhibition, significance) (Carcinogen: SAFROLE, 94-59-7, 5.5 MG IN 0.05 ML SUNFLOWER OIL 1/WK FOR 1 YR BEGINNING POST CARCINOMA TREATMENT (STUDY DURATION: 24 MO), Strain/Sex: SWISS/FEMALE, Target Tissue: Type of Lesion: SPLEEN: LYMPHOMA, Dose [Carcinogen]: 0.2 MG ON D 1 AND 7 AFTER BIRTH THEN 0.4 MG ON D 14 AND 21): 9/18 (50%), 7/19 (37%), 26%, not calculated
- tumour outcome (control, treated, inhibition, significance) (Carcinogen: TANNIC ACID, 1401-55-4, 5.5 MG IN 0.05 ML SUNFLOWER OIL 1/WK FOR 1 YR BEGINNING POST CARCINOGEN TREATMENT (STUDY DURATION: 24 MO), Strain/Sex: SWISS/FEMALE, Target Tissue: Type of Lesion: LUNG: PAPILLARY ADENOCARCINOMA, Dose [Carcinogen]: 25 MG/KG BW ON D 1, 7, 14 AND 21 AFTER BIRTH): 2/8 (25%), 1/9 (11%), 56%, not calculated
- tumour outcome (control, treated, inhibition, significance) (Carcinogen: TANNIC ACID, 1401-55-4, 5.5 MG IN 0.05 ML SUNFLOWER OIL 1/WK FOR 1 YR BEGINNING POST CARCINOGEN TREATMENT (STUDY DURATION: 24 MO), Strain/Sex: SWISS/FEMALE, Target Tissue: Type of Lesion: SPLEEN: LYMPHOMA, Dose [Carcinogen]: 25 MG/KG BW ON D 1, 7, 14 AND 21 AFTER BIRTH): 4/8 (50%), 4/9 (44%), 12%, not calculated
- tumour outcome (control, treated, inhibition, significance) (Carcinogen: TANNIC ACID, 1401-55-4, 5.5 MG IN 0.05 ML SUNFLOWER OIL 1/WK FOR 1 YR BEGINNING POST CARCINOGEN TREATMENT (STUDY DURATION: 24 MO), Strain/Sex: SWISS/MALE, Target Tissue: Type of Lesion: LUNG: PAPILLARY ADENOCARCINOMA, Dose [Carcinogen]: 25 MG/KG BW ON D 1, 7, 14 AND 21 AFTER BIRTH): 3/12 (25%), 2/12 (17%), 32%, not calculated
- tumour outcome (control, treated, inhibition, significance) (Carcinogen: TANNIC ACID, 1401-55-4, 5.5 MG IN 0.05 ML SUNFLOWER OIL 1/WK FOR 1 YR BEGINNING POST CARCINOGEN TREATMENT (STUDY DURATION: 24 MO), Strain/Sex: SWISS/MALE, Target Tissue: Type of Lesion: SPLEEN: LYMPHOMA, Dose [Carcinogen]: 25 MG/KG BW ON D 1, 7, 14 AND 21 AFTER BIRTH): 5/12 (42%), 3/12 (25%), 40%, not calculated
